These compounds were tested on rice leafroller (Cnaphalocrocis medinalis) (assay: Insecticidal effect on rice leafroller (Test Example 3)). Conditions: 500 ppm, rice lamina dip, third-instar larvae of rice leafroller, 4 days after inoculation, 25° C., humidity 70%.
Format: in vivo
Description: Insecticidal effect on rice leafroller (Cnaphalocrocis medinalis)
After air-drying, the lamina was placed in a plastic Petri dish with a diameter of 9 cm whose bottom had been covered with a wetted filter paper. The lamina was inoculated with third-instar larvae of rice leafroller, after which the dish was allowed to stand in a room thermostated at 25° C. and having a humidity of 70%. Four days after the inoculation, the dead and alive were counted and the insecticidal effect was judged according to the criterion shown in Test Example 1. The test was carried out with triplicate groups of 10 insects.

SMILES | Insecticidal effect (Test Example 3), judged from mortality
Cc1c(NC(=O)c2cccc(I)c2C(=O)NC(C)C)ccc(C(F)(F)C(F)(F)F)c1C [compound 1640] | A (100)

Same assay, conditions: 500 ppm, rice lamina dip, third-instar larvae, four days after inoculation, 25° C., humidity 70%

SMILES | Insecticidal effect on rice leafroller (Test Example 3), judged grade
Cc1c(Cl)cccc1NC(=O)c1c(C(=O)NC(C)C)cccc1C(F)(F)F [compound 765] | A (100)
Cc1cc(OC(F)F)ccc1NC(=O)c1c(SCC(F)(F)F)cccc1C(=O)NC(C)C [compound 798] | A (100)
Cc1cc(SC(F)(F)C(F)(F)F)ccc1NC(=O)c1c(I)cccc1C(=O)NC(C)C [compound 910] | A (100)
Cc1cc(OC(F)F)ccc1NC(=O)c1cccc(C(F)(F)F)c1C(=O)NC(C)C [compound 759] | D (79-50)

Same assay, conditions: 500 ppm; rice lamina immersed; third-instar larvae of rice leafroller; four days after inoculation; 25° C., humidity 70%

SMILES | Insecticidal effect, Test Example 3
CC(C)NC(=O)c1cccc(I)c1C(=O)Nc1ccc(OC(F)(F)F)cc1 [compound 418] | A (100)
CC(C)NC(=O)c1ccccc1C(=O)Nc1ccc(C(F)(F)C(F)(F)C(F)(F)C(F)(F)F)cc1 [compound 28] | A (100)
CC(C)NC(=O)c1cccc(I)c1C(=O)Nc1ccc(C(F)(F)F)cc1 [compound 415] | A (100)
Cc1ccc(NC(=O)c2ccccc2C(=O)NC(C)C)c(C)c1 [compound 44] | A (100)

Same assay, conditions: rice leafroller third-instar larvae; rice lamina immersed, 500 ppm; four days after inoculation; 25° C., humidity 70%

SMILES | Insecticidal effect, Test Example 3
Cc1cc(C(F)(F)C(F)(F)F)ccc1NC(=O)c1c(Cl)cccc1C(=O)NC(CO)c1ccc(Cl)cc1 (stereo not drawn) [compound 1416] | A (100)
Cc1cc(C(F)(F)C(F)(F)F)ccc1NC(=O)c1c(I)cccc1C(=O)NCCC(C)C [compound 1016] | A (100)
COC(Oc1ccc(NC(=O)c2cccc(Cl)c2C(=O)NC(C)C)c(C)c1)=C(C(F)(F)F)C(F)(F)F [compound 1293] | A (100)
Cc1cc(C(F)(F)C(F)(F)F)ccc1NC(=O)c1c(Cl)cccc1C(=O)NCc1ccccc1Cl [compound 1310] | B (99-90)
Cc1cc(OC(F)(F)F)ccc1NC(=O)c1cc(Cl)cc(Cl)c1C(=O)NC(C)C [compound 1224] | B (99-90)
Cc1cc(C(F)(F)C(F)(F)F)ccc1NC(=O)c1c(Cl)cccc1C(=O)NCc1ccccc1 [compound 1308] | C (89-80)
Cc1cc(C(F)(F)C(F)(F)F)ccc1NC(=O)c1c(I)cccc1C(=O)N1CC(C)CC(C)C1 (stereo not drawn) [compound 1140] | A (100)
Cc1cc(C(F)(F)C(F)(F)F)ccc1NC(=O)c1c(Cl)cccc1C(=O)NCCc1ccc(Cl)cc1 [compound 1361] | A (100)

Each compound was assayed on diamondback moth (Plutella xylostella) (assay: Insecticidal effect on diamondback moth (Test Example 1)). Conditions: diamondback moth; judged by the mortality criterion of Test Example 1.
Format: in vivo
Summary of the method: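 Read-out was mortality from hatched-insect counts taken 6 days after the egg-bearing cabbage seedling was immersed, graded by set criteria. Seedlings were air-dried and kept at 25° C after treatment. Groups of 10 insects, in triplicate.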

SMILES | Insecticidal effect, Test Example 1
CC(C)NC(=O)c1c(Cl)cccc1C(=O)Nc1ccc(C(C)(C)C)cc1 [compound 88] | A (100)
Cc1cc(C)c(NC(=O)c2c(Br)cccc2C(=O)NC(C)C)c(C)c1 [compound 304] | A (100)

Same assay, conditions: diamondback moth; mortality judged by criterion of Test Example 1

SMILES | Insecticidal effect, Test Example 1
Cc1cc(C(F)(F)C(F)(F)F)ccc1NC(=O)c1c(Cl)cccc1C(=O)NC(C)c1ccccc1 (stereo not drawn) [compound 1322] | A (100)

Same assay, conditions: mortality judged according to the criterion shown in Test Example 1

SMILES | Insecticidal effect on diamondback moth (Test Example 1), judged grade
Cc1cc(Oc2ncc(C(F)(F)F)cc2Cl)ccc1NC(=O)c1c(I)cccc1C(=O)NC(C)C [compound 461] | A (100)
CC(C)NC(=O)c1c(C(=O)Nc2ccc(SC(F)(F)C(F)F)cc2)cccc1[N+](=O)[O-] [compound 626] | A (100)
CC(C)NC(=O)c1c(Cl)cccc1C(=O)Nc1ccc(C=C(Br)Br)cc1 [compound 913] | A (100)
CC(C)NC(=O)c1c(C(=O)Nc2ccc(F)c(F)c2)cccc1[N+](=O)[O-] [compound 642] | A (100)

Reference: patent publication US6362369B1, “Phthalic acid diamide derivatives fluorine-containing aniline compounds as starting material, agricultural and horticultural insecticides, and a method for application of the insecticides” (Nihon Nohyaku Co., Ltd., priority 1997, dated 2002)
